As a reminder, the IC50 is the midpoint of a concentration-inhibition curve. Low values mean inhibition by little substance, high ones a need for much substance.

The text below walks through data of patent US20080188483A1, “Compounds and Compositions as Protein Kinase Inhibitors” (IRM LLC, priority 2006, published 2008).

The assay deals with b-Raf (Homo sapiens, UniProt P15056). Put plainly: b-Raf enzymatic assay. It is filed as biochemical. As for the experimental part: Compounds of the invention are tested for their ability to inhibit the activity of b-Raf. The assay is carried out in 384-well MaxiSorp plates (NUNC) with black walls and clear bottom. The substrate, IκBα: is diluted in DPBS (1:750) and 15 μl is added to each well. The plates are incubated at 4° C. overnight and washed 3 times with TBST (25 mM Tris, pH 8.0, 150 mM NaCl and 0.05% Tween-20) using the EMBLA plate washer. Plates are blocked by Superblock (15 μl/well) for 3 hours at room temperature, washed 3 times with TBST and pat-dried. Assay buffer containing 20 μM ATP (10 μl) is added to each well followed by 100 nl or 500 nl of compound. B-Raf is diluted in the assay buffer (1 μl into 25 μl) and 10 μl of diluted b-Raf is added to each well (0.4 μg/well). The plates are incubated at room temperature for 2.5 hours. The kinase reaction is stopped by washing the plates 6 times with TBST. Phosph-IκBα (Ser32/36) antibody is diluted in Superblock (1:10,000) and […] is added to each well. The plates are incubated at 4° C. overnight and washed 6 times with TBST. AP-conjugated goat-anti-mouse IgG is diluted in Superblock (1:1,500) and 15 μl is added to each well. Plates are incubated at room temperature for 1 hour and washed 6 times with TBST. […] Plates are read on Acquest or Analyst GT using a Fluorescence Intensity Program (Excitation 455 nm, Emission 580 nm).
Chain of b-Raf (P15056 whole entry): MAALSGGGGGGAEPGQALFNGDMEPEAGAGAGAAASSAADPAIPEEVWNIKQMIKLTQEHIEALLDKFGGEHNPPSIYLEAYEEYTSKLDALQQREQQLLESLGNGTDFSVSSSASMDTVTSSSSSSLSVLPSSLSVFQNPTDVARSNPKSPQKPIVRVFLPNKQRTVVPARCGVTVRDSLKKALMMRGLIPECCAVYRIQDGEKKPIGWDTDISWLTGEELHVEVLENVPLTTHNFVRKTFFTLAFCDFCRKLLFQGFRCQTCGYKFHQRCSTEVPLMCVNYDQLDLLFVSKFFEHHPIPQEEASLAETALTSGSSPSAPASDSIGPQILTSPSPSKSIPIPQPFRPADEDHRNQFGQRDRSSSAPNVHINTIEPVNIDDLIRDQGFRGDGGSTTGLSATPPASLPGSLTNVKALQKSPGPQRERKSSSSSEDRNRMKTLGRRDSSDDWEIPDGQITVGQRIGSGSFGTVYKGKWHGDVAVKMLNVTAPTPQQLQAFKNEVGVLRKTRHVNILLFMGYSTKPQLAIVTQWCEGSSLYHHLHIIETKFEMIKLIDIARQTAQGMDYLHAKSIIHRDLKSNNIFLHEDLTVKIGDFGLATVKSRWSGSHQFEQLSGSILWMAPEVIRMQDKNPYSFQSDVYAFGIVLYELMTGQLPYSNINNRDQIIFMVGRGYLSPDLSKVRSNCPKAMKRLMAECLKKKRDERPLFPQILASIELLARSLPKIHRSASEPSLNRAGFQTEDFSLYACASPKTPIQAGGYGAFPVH

In turn, `Cc1cn(-c2cc(C(=O)Nc3ccc(C)c(Nc4nccn4-c4ncnc5[nH]ccc45)c3)cc(C(F)(F)F)c2)cn1` [Example 2, 3-(4-methyl-imidazol-1-yl)-N-{4-methyl-3-[1-(7H-pyrrolo[2,3-d]pyrimidin-4-yl)-1H-imidazol-2-ylamino]-phenyl}-5-trifluoromethyl-benzamide] came in with an IC50 of 2 nM.
